Data: patent EP2926811A1, “ARTEMETHER-CONTAINING PHARMACEUTICAL COMPOSITION, PREPARATION, AND USE THEREOF” (Kunming Pharmaceutical Corp., priority 2012, dated 2014)
Where two headings read alike, the source gives them in different places.

Tests used:
Format in all cases: cell-based
K562 cells = assay: modified MTT method, proliferation of K562 cells; conditions: Homo sapiens, read-out: IC50 on the growth of K562 cells
Procedure: (§1) Five test concentrations 2, 10, 50, 250 and 500 µM were set for each of five derivatives of artemisinin, artemether drug substance, artemisinin, dihydroartemisinin, artesunate were dissolved with dimethyl sulfoxide (DMSO), while the lyophilized powder of artemether was dissolved with normal saline (N.S.), followed by addition of a certain amount of RPMI 1640 complete culture solution to formulate a high-concentration solution, and each of the low-concentration solutions was formulated by proportionate dilution from the high-concentration solution.
(§2) The concentrations of DMSO contained in the solutions at the two relatively high concentrations 500 and 250 µM for the artemether drug substance, artemisinin, dihydroartemisinin, artesunate, used as solvent controls, were formulated with […] culture solution, at which time the test concentrations of DMSO were 1% and 0.5%. The concentrations of the excipients contained in the solutions at the two relatively high concentrations 500 and 250 µM for the preparation of lyophilized powder of artemether were used as solvent controls.
(§3) The positive control was an anti-cancer drug adriamycin (ADM), which was set at three test concentrations (final concentrations) of 0.1, 1 and 10 µg/ml. To ADM stock solution (1 mg/ml) a certain amount of PRMI 1640 complete culture solution was added, to formulate a high-concentration solution, and each of the low-concentration solutions were formulated by proportionate dilutions from the high-concentration solution.
(§4) HL-60: (human promyelocytic leukemia cell line); K562 (human chronic myelocytic leukemia cell line); HT-29 (human colon cancer cell line); PC-3 (human prostate cancer cell line); A549 (human non-small cell lung cancer cell line); MKN-28 (human gastric cancer cell line); Hep2 (human laryngeal cancer cell line), all of which were purchased from Cell Bank of Shanghai Institutes for Biological Sciences, the Chinese Academy of Sciences.
(§5) Influence of the five test samples on the proliferation of 7 human tumor cell lines was determined via a modified MTT method.
(§6) Cells in logarithmic growth phase were taken, adjusted to a certain concentration and then added into a 96 well culture plate. After culture of adherent cells for a period until adherence, the test samples were added; and for suspension cells, the test samples were added after inoculation. 5 test concentrations 2, 10, 50, 250 and 500 µM were set, with 3 parallel wells for each concentration, 10 µl/well; the solvent controls were 0.5% and 1% of isovolumetric DMSO, and the positive controls was ADM at 3 concentrations 0.1, 1 and 10 µg/ml. The samples were loaded followed by culture for a period of time in an incubator at 37°C, 5% CO2, followed by addition of MTT (5 mg/ml) at 20 µl/well, and continued to be cultured for a period of time and added with a three-combined solution [10% SDS - 5% isobutanol - 0.012 mol/L HCl (W/V/V)]. After dissolving in uniformity, it was continued to be placed in the incubator at 37°C, 5% CO2 for a period of time, and the OD value of each well was determined under a wavelength of 570 nm with a microplate reader, according to which the results were calculated.
(§7) The cellular proliferation inhibition rate was calculated in accordance with the following equation: Inhibition rate (%) = (OD valuecontrol well-OD valuesample well)/OD valuecontrol well × 100% [formula]
(§8) When the inhibition rate of DMSO on cells was more than 15%, calculation was carried out using the following equation: Inhibition rate (%) = (OD valuesolvent group-OD valueadministered well)/OD valuesolvent group × 100% [formula]
(§9) The inhibition rate was calculated by using Microsoft Excel 2003, and median inhibitory concentration IC50 was calculated with a LOGIT method, which was used as an indicator for judging the inhibitory capability.

HL-60 cells = assay: modified MTT method, proliferation of HL-60 cells; conditions: Homo sapiens, read-out: IC50 on the growth of HL-60 cells
Procedure: as §1, §2, §3, §4, §5, §6, §7, §8, §9

A549 cells = assay: modified MTT method, proliferation of A549 cells; conditions: Homo sapiens, read-out: IC50 on the growth of A549 cells
Procedure: as §1, §2, §3, §4, §5, §6, §7, §8, §9

HT-29 cells = assay: modified MTT method, proliferation of HT-29 cells; conditions: Homo sapiens
Procedure: as §1, §2, §3, §4, §5, §6, §7, §8, §9
(§10) According to the results of preliminary screening, further experiments were adjusted such that more sensitive cell lines were screened out. […]

PC-3 cells = assay: modified MTT method, proliferation of PC-3 cells; conditions: Homo sapiens, read-out: IC50 on the growth of PC-3 cells
Procedure: as §1, §2, §3, §4, §5, §6, §7, §8, §9

MKN-28 cells = assay: modified MTT method, proliferation of MKN-28 cells; conditions: Homo sapiens, MKN-28, 72 h, secondary screening
Procedure: as §1, §2, §3, §4, §5, §6, §7, §8, §9, §10

Hep2 cells = assay: modified MTT method, proliferation of Hep2 cells; conditions: Homo sapiens, HEp-2, 72 h, secondary screening
Procedure: as §1, §2, §3, §4, §5, §6, §7, §8, §9, §10

SMILES: C[C@H]1[C@@H](O)O[C@@H]2O[C@@]3(C)CC[C@H]4[C@H](C)CC[C@@H]1[C@@]24OO3 [dihydroartemisinin]
- IC50 (K562 cells; K562, 24 h, Batch 1, 24 h): > 1000 µM
- IC50 (K562 cells; K562, 24 h, Batch 2, 24 h): 144 µM
- IC50 (K562 cells; K562, 24 h, Batch 3, 24 h): 146 µM
- IC50 (K562 cells; K562, 48 h, Batch 1, 48 h): 997 µM
- IC50 (K562 cells; K562, 48 h, Batch 2, 48 h): 28 µM
- IC50 (K562 cells; K562, 48 h, Batch 3, 48 h): 80.7 µM
- IC50 (K562 cells; K562, 72 h, Batch 1, 72 h): 492 µM
- IC50 (K562 cells; K562, 72 h, Batch 2, 72 h): 44.8 µM
- IC50 (K562 cells; K562, 72 h, Batch 3, 72 h): 60.5 µM
- IC50 (HL-60 cells; HL-60, 24 h, Batch 1, 24 h): > 1000 µM
- IC50 (HL-60 cells; HL-60, 24 h, Batch 2, 24 h): 74.4 µM
- IC50 (HL-60 cells; HL-60, 48 h, Batch 1, 48 h): > 1000 µM
- IC50 (HL-60 cells; HL-60, 48 h, Batch 2, 48 h): 16.3 µM
- IC50 (HL-60 cells; HL-60, 72 h, Batch 1, 72 h): > 1000 µM
- IC50 (HL-60 cells; HL-60, 72 h, Batch 2, 72 h): 116 µM
- IC50 (A549 cells; A549, 24 h, Batch 1, 24 h): > 1000 µM
- IC50 (A549 cells; A549, 24 h, Batch 2, 24 h): 935 µM
- IC50 (A549 cells; A549, 48 h, Batch 1, 48 h): > 1000 µM
- IC50 (A549 cells; A549, 48 h, Batch 2, 48 h): 221 µM
- IC50 (A549 cells; A549, 72 h, Batch 1, 72 h): > 1000 µM
- IC50 (A549 cells; A549, 72 h, Batch 2, 72 h): 192 µM
- IC50 (HT-29 cells; HT-29, 24 h, preliminary screening, Batch 1, 24 h, read-out: IC50 on the growth of HT-29 cells): 288 µM
- IC50 (HT-29 cells; HT-29, 24 h, preliminary screening, Batch 2, 24 h, read-out: IC50 on the growth of HT-29 cells): 280 µM
- IC50 (HT-29 cells; HT-29, 48 h, preliminary screening, Batch 1, 48 h, read-out: IC50 on the growth of HT-29 cells): 337 µM
- IC50 (HT-29 cells; HT-29, 48 h, preliminary screening, Batch 2, 48 h, read-out: IC50 on the growth of HT-29 cells): 433 µM
- IC50 (HT-29 cells; HT-29, 72 h, preliminary screening, Batch 1, 72 h, read-out: IC50 on the growth of HT-29 cells): 160 µM
- IC50 (HT-29 cells; HT-29, 72 h, preliminary screening, Batch 2, 72 h, read-out: IC50 on the growth of HT-29 cells): 258 µM
- IC50 (HT-29 cells; HT-29, 72 h, secondary screening, 72 h, Batch 1, read-out: IC50 on the growth of HT-29 cells (72 h)): 236 µM
- IC50 (HT-29 cells; HT-29, 72 h, secondary screening, 72 h, Batch 2, read-out: IC50 on the growth of HT-29 cells (72 h)): 173 µM
- IC50 (HT-29 cells; HT-29, 72 h, secondary screening, 72 h, Batch 3, read-out: IC50 on the growth of HT-29 cells (72 h)): 148 µM
- IC50 (HT-29 cells; HT-29, 72 h, secondary screening, 72 h, average, read-out: IC50 on the growth of HT-29 cells (72 h)): 143 µM
- IC50 (PC-3 cells; PC-3, 24 h, Batch 1, 24 h): 660 µM
- IC50 (PC-3 cells; PC-3, 24 h, Batch 2, 24 h): > 1000 µM
- IC50 (PC-3 cells; PC-3, 48 h, Batch 1, 48 h): > 1000 µM
- IC50 (PC-3 cells; PC-3, 48 h, Batch 2, 48 h): > 1000 µM
- IC50 (PC-3 cells; PC-3, 72 h, Batch 1, 72 h): 230 µM
- IC50 (PC-3 cells; PC-3, 72 h, Batch 2, 72 h): > 1000 µM
- IC50 (MKN-28 cells; Average, read-out: IC50 on the growth of MKN-28 cells (72 h)): 16.2 µM
- IC50 (MKN-28 cells; Batch 1, read-out: IC50 on the growth of MKN-28 cells (72 h)): 15.1 µM
- IC50 (MKN-28 cells; Batch 2, read-out: IC50 on the growth of MKN-28 cells (72 h)): 17.1 µM
- IC50 (MKN-28 cells; Batch 3, read-out: IC50 on the growth of MKN-28 cells (72 h)): 16.5 µM
- IC50 (Hep2 cells; Batch 1, read-out: IC50 on the growth of Hep2 cells (72 h)): 114 µM
- IC50 (Hep2 cells; Batch 2, read-out: IC50 on the growth of Hep2 cells (72 h)): 88.2 µM
- IC50 (Hep2 cells; Batch 3, read-out: IC50 on the growth of Hep2 cells (72 h)): 126 µM
- IC50 (Hep2 cells; average, read-out: IC50 on the growth of Hep2 cells (72 h)): 92 µM
